The values below come from patent US5194611A, “Separation technique for a mixture of (6RS)-diastereoisomers of an ammonium salt of N^5 -methyl-5,6,7,8-tetrahydrofolic acid into single (6R) and (6S)-diastereoisomers” (Sapec S.A. fine chemicals, priority 1990, dated 1993).

Structures can show the parent of a compound that is named as a salt.

This assay deals with human CCRF-CEM cells. Briefly: cells. The following applies: 72 h, read-out: % growth (72 hrs exp.). Here is the method: Inhibition of the growth of human CCRF-CEM cells
Human leukemia cells (CCRF-CEM) were grown during 72 hours in the presence of increasing concentration of (6R)-N^5 -methyl-THF.[…].

Turning to `CN1c2c(nc(N)[nH]c2=O)NC[C@H]1CNc1ccc(C(=O)N[C@@H](CCC(=O)O)C(=O)O)cc1` [(6R)-N^5 -Methyl-THF.Ca^2+, (6R)-N^5 -methyl-THF-calcium salt], the activity at 1 µM is 95%, the activity at 10 µM was 99%, the activity at 30 µM worked out at 10% and the activity at 100 µM was found to be 9.3%. For the same compound, the activity at 250 µM stood at 8.2%.
